Data published in patent publication US12383512B2, “Cannabidiol-type cannabinoid compound” (Jazz Pharmaceuticals Research UK LImited, priority 2019, dated 2025).

Tested on: tonic hind limb extensor seizure following corneally delivered electroshock in mice
Test: Supramaximal electroshock seizure (MES) test in the mouse
Type: in vivo
Conditions: 250 mg/kg i.p., pre-treatment time 30 min
Method: The MES test is a very stringent model in which mice receive a predetermined high-level electrical stimulus of sufficient intensity to reliably produce tonic hindlimb extensor seizures in 100% of control animals. As such the MES test is a rigorous evaluation of anticonvulsant activity (Swinyard, 1985).
Animals were dosed i.p. according to treatment group. […]
In addition, a dose of 100 mg/kg CBD was given at 10 ml/kg i.p. at 120 minutes pre-treatment time to assess the effect of the drug over a longer time course.
The positive control valproate was used at 250 mg/kg (10 ml/kg i.p. 30 min pre-treatment time).
Induction of seizure is measured as an all-or-nothing effect scored as either present (+) or absent (0) for each animal.
Data was collected by an observer unaware of the treatment for each animal and was expressed as the number of +'s or 0's for each treatment group.
The percentage inhibition of relevant vehicle treated group (the protection relative to vehicle treated controls) was then generated.
Significant differences between individual treatment groups and vehicle-treated groups were assessed using 2-tailed Fisher's Exact Probability test (p<0.05 considered significant).

CCCC(CCC)C(=O)O [Valproate, valproate, reference compound]
% change from vehicle: 100%
